B1: Clone 4110: thermostable viral DNA polymerase clone, polypeptide SEQ ID NO: 8 (protein)
chain: MGLDQILDMSYFVDSGATMLKLILRGSGGKNVVTVPAPFNPYFFIKKRDLDRAQSILPDYARVEDADAITAEGERVVKISVPTPPLVRVVREKLHEEGIESYEADIPYTRRVMIDLDLKVAYPETVAAFDIEVDATKGFPDINNPQSRVLSISVYDGSEEIFLCSDDEIEMFKEFNKLLRKYDVLIGWNSAAFDYPYLVERAKVLGYYVDEEMFQHVDIFGIFQTYFKREMSDFKLKTVALKVLGSKVPLGALLDFERPGDIRKLTEFFEKRRDLLKLYNMDQTKAIWMINSESGVLQTYITQARLANIIPWHRVSPRTDSSQEYISYNNDCRDLVLKKALAHKPRIVFPSKKNGENEDWDEDAKESTYTGAIVFNPIPGLWENVVLLDFASMYPRVIMTFNISYDTWTPNPGENDILAPHGGFITSREGFLPTVLRELEGYRSLAKKMVDAYEPGDPMRVIWNARQFAFKLILVSAYGVAGFRHSRLYRVEIAESITGYTRDAIMKAREVIERHGWRVLYGDTDSLFLYNPKITSVEKASEVASSELLPAINSFIRDYVVERWRVPRSRVVLEFKVDRVYSKLKLLSVKKRYYGLVAWEERMLEQPYIQIKGLEARRGDWPDLVKEIQSEVIKLYLLEGPIAVDRYLKEMKRKLLSGEIPLEKLVIKKHLNKRLDEYKHNAPHYRAARKLLEMRFPVRTGDRIEFIYLDDKVIPMVPGLKLSEVDLKKWWRKYVVPVVERLEIESRGS
modifications: Uncultured newly isolated virus
B2: Clone 967: thermostable viral DNA polymerase clone, polypeptide SEQ ID NO: 14 (protein)
chain: MQKEIPFNYNSPKQTAKLFGIDSSSKDVLMDLALRGNEVAKKVLEARQIEKSLAFAKDLYDIAKKNGGRIHGNFFTTTAPSGRMSCSDINLQQIPRRLRQFIGFETEDKKLITADFPQIELRLAGVMWNEPEFLKAFRDGIDLHKLTASILFDKKINEVSKEERQIGKSANFGLIYGISPKGFAEYCISNGINITEEMAIEIVKKWKKFYRKIAEQHQLAYERFKYAEFVDNETWLNRPYRAYKPQDLLNYQIQGSGAELFKKAIILLKETKPDLKLVNLVHDEIVVETSTEEAEDIALLVKQKMEEAWDYCLEKAKEFGNNVADIKLEVEKPNISSVWEKE
modifications: Uncultured newly isolated virus
B3: Clone 488: thermostable viral DNA polymerase clone, polypeptide SEQ ID NO: 4 (protein)
chain: AVGTWITTLQKLGFTYEELEDKEVLDLLSIARLVLPERFKENGFSLDVVLKEVLGIDYKFDKKTIRKTFTPLLMTQEQLEYIASDVIYLPALKEKLDEKFNKRLWLPYILDMEATKILAEVSNNGMPFLKEKAKEELSRLSKELEGLRKELGFNPNSPKETQKVLNTPDTSEATLMKLIISNSSKKAIAEKVIQARKIQKVIAMINKYLNYDRVKGTFWTTTAPSGRMSCDKENLQQIPRSIRYLFGFDENSDKTLVIADYPQIELRLAGVLWKEPKFIQAFNEGKDLHKQTASIIYGIPYEEVNKEQRQIAKSANFGLIYGMSVEGFANYCIKNGIPMDTQTAQHIVNSFFNFYGKIAEKHKEGNLIIQSQGIAEGYTWLGRRYIAQRLNDYLNYQIQGSGAELLKKAVMEIKSKYPYIKIVNLVHDEIVVEAYKDDAQDIARIIKQEMENAWEWCIQEAQKLGVDLTPVKLECENPTISNVWEK
modifications: Uncultured newly isolated virus

Tests used:
[1] = target: polymerase 3173 (SEQ ID NO:6) mutant D49A (uncultured virus, UniProt R4KMS7, D72A); experiment: Inhibition of 5' Rox-labeled primer extension by chain terminators (ABI 310 Genetic Analyzer); format: biochemical; settings: ddNTPs 50, 500 and 5000 μM each vs 50 μM each dNTP (up to 100-fold molar excess); 70° C., 30 minutes
Chain of polymerase 3173 (SEQ ID NO:6) mutant D49A (R4KMS7 entry or part of it D72A): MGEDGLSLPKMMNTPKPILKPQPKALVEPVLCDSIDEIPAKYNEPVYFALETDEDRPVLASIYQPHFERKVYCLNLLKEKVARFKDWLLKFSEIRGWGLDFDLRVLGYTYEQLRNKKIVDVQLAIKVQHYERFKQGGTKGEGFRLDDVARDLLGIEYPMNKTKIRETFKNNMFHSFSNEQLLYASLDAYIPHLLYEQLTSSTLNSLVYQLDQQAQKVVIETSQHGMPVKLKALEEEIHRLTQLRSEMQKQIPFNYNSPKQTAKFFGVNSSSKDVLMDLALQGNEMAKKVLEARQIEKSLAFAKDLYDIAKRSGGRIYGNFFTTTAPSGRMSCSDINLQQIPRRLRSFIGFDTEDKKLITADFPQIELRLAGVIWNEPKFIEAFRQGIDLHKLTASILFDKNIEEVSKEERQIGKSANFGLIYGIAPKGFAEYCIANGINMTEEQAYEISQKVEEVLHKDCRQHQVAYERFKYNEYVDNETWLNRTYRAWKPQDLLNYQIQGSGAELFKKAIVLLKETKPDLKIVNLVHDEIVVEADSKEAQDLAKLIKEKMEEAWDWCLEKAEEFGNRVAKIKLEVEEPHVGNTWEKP
Method: In separate reactions, ddGTP, ddATP, ddTTP, and ddCTP were added to the above mix in concentrations of 50, 500 and 5000 μM each. Five units of polymerase 3173 mutant D49A were added and the reactions were incubated for 30 minutes at 70° C. Extension of the primer was detected by the ABI 310 Genetic Analyzer in Gene Scan mode.

lacIq gene = experiment: Fidelity assay, lacIq amplification with blue/white colony count; settings: 25 PCR cycles; target size 349 for lacIq
Method: Fidelity was determined by a modification of the standard assay in which the lacIq gene is amplified by the DNA polymerase of interest and inserted into a plasmid containing genes encoding a functional lacZ alpha peptide and a selectable marker. Primers of SEQ ID NOS:28 and 29 were used to amplify a sequence containing both the lacIq and the KanR gene. […] Normally a white phenotype is seen for clone containing this construct when plated on X-Gal. Mutation of the lacIq results in a blue phenotype for the colonies when plated on X-Gal.
For high fidelity PCR amplification, five units of the wild-type (proofreading) DNA polymerase 3173 (SEQ ID NO: 6) was tested using the following mix (50 mM Tris HCl (pH 9.0 at 25° C.), 50 mM KCl, 10 mM (NH4)2SO4, 1.5 mM MgSO4, 1.5 mM MgCl2, 0.1% triton-X100, 250 mM ectoine and 0.2 mM each of dGTP, dATP, dTTP and dCTP. Opposing primers of SEQ ID 28 and 29 (1 μM each) amplified the expected 2 k kb product from template SEQ ID 30 (10 ng). After thermal cycling (94° C. for 1 minute, 25 cycles of (94° C. for 15 seconds, 60° C. for 15 seconds, 72° C. for 2.5 minutes) and 72° C. 7 minutes), reaction products were quantified to determine “fold amplification,” (see below) using agarose gel electrophoresis. Both primers contain Eco109I sites. The PCR product was digested with Eco109I and inserted into the Eco109I site of pUC19. 10 G cells transformed by the construct were plated on LB plates containing ampicillin (100 μg/ml), kanamycin (30 μg/ml) and X-Gal (50 μg/ml). Blue and white colony counts were used for the fidelity determinations.

[2] = system: ROX-labeled 37 nt primer annealed to 41 nt template; experiment: Primer extension assay of heat-treated clone extracts (ABI 310 capillary electrophoresis); format: biochemical; settings: extract heated 70° C. 10 min; reaction 70° C. 10 minutes
Method: 34 complete polymerase genes from the library described in Examples 3 and 4, as well as 24 additional viral genes from three other similarly prepared libraries, were constitutively expressed in the E. CLONI 10 G cells (Lucigen, Middleton, Wis.). The proteins were extracted, heated to 70° C. for 10 minutes and tested for DNA polymerase activity using a primer extension assay as follows.
A primer of 37 nucleotides having the sequence shown in SEQ ID NO:23, labeled on its 5′ end with ROX, was annealed to a template of 41 nucleotides having the sequence shown in SEQ ID NO:24. […] The reaction was incubated at 70° C. for 10 minutes. The reactions were analyzed using an ABI 310 Genetic Analyzer. […] Of the 58 clones tested, a total of ten clones expressed detectable DNA polymerase (DNAP) activity. The clone number and corresponding polynucleotide sequence, polypeptide sequence, sequence similarity and E (expect)-values for these polymerases are shown below in Table 1.

| Molecule | inhibition of primer extension [1] | Exo (exonuclease activity, either 3′-5′ or 5′-3′) [2] | further results |
| --- | --- | --- | --- |
| Nc1ncnc2c1ncn2[C@H]1CC[C@@H](COP(=O)(O)OP(=O)(O)OP(=O)(O)O)O1 [ddATP] | no inhibition of primer extension was detected | – | – |
| Nc1ccn([C@H]2CC[C@@H](COP(=O)(O)OP(=O)(O)OP(=O)(O)O)O2)c(=O)n1 [ddCTP] | no inhibition of primer extension was detected | – | – |
| Cc1cn([C@H]2CC[C@@H](COP(=O)(O)OP(=O)(O)OP(=O)(O)O)O2)c(=O)[nH]c1=O [ddTTP] | no inhibition of primer extension was detected | – | – |
| Taq: standard commercial DNA polymerase (Lucigen) used for comparison [reference compound] | – | – | Fidelity (lacIq gene): 9.76E+03 |
| B1 | – | No | – |
| B2 | – | No | – |
| B3 | – | No | – |
